Test system: 922993-354-T-J3-PDC complex spheroids, viability
Experiment: Anticancer human tumor 922993-354-T-J3-PDC patient-derived endometrial carcinoma cell line growth inhibition [GQUAD]
Conditions: for IC50: curve of first compound; for viability, T/C: stronger effect = lower value
Text: DNA G-quadruplex Stabilizer Agents in Combinations in Complex Spheroids
A high-throughput screen of multi-cell type tumor spheroids was designed to identify active combinations of DNA G-quadruplex stabilizer agents and targeted small molecules. Complex spheroids include a stromal component modeled by human endothelial cells (HUVEC) and fibroblasts modeled by human mesenchymal stem cells (MSCs). The concentration ranges selected for each drug and investigational agent were based upon clinically achievable concentrations if the clinical Cmax of the agent was known.
Compounds. The drugs and investigational agents: pidnarulex (CX-5461; NSC782164), APTO-253 (NSC789042), BRACO-19 (NSC847499), peposertib (NSC802822), ceralasertib (NSC780249), elimusertib (NSC800525), camonsertib (NSC841442), AZD-1390 (NSC803789), olaparib (NSC753686), talazoparib (NSC767125), ART-558 (NSC835418), sotorasib (NSC818433), MRTX-1133 (NSC836407), SN-38 (NSC673596), topotecan (NSC609699), etoposide (NSC141540), doxorubicin (NSC123127), gemcitabine (NSC613327), 5-fluorouracil (NSC19893), paclitaxel (NSC125973), vemurafenib (NSC761431), panobinostat (NSC761190), R-306465 (JNJ-16241199; NSC773264), adavosertib (NSC754352), TP-3654 (NSC805149), carboplatin (NSC241240), KSQ-4279 (NSC840948), and staurosporine (NSC755774) were obtained from the National Cancer Institute (NCI) Developmental Therapeutics Program Chemical Repository (34). The FDA-approved anticancer drug set is available from the NCI Developmental Therapeutics Program. […] The stock solutions were prepared in dimethyl sulfoxide (DMSO, Sigma-Aldrich, St. Louis, MO, cat. D2650) at 800-fold the tested concentration and stored at -70 degrees C prior to their use. All drugs and investigational agents were tested over a range starting from a high concentration at or near the clinical Cmax and decreasing in half-log increments. If the clinical Cmax for an agent had not been determined, the highest concentration tested was 10 microM.
2.3 Cell Culture. All cells were maintained in an incubator at 37 degrees C and 5% CO2 with 95% humidity. The PDC lines were cultured according to standard operating procedures established by the NCI PDMR. All PDCs were thawed and cultured in Matrigel-coated flasks prepared with a working solution of 1X Ham's F-12 nutrient mix, without supplementation (Invitrogen, cat. 11765054), 100 U/mL penicillin-streptomycin (Invitrogen, cat. 15140122), and 2.5% Matrigel (Corning Inc., cat. 354248) for the first three passages. The 857933-349-R-J2-PDC line was cultured in 6C/Colon 1B media, which includes advanced DMEM/F-12 (Thermo Fisher Scientific, cat. 12634028), 10 mM HEPES (Thermo Fisher Scientific, cat. 15630080), 1X GlutaMAX supplement (Thermo Fisher Scientific, cat. 35050061), 0.1 mg/mL primocin (InvivoGen, cat. ant-pm-2), 10% defined fetal bovine serum, heat inactivated (HyClone Laboratories Inc., cat. SH30070.03HI), 50% L-WRN conditioned media (ATCC, cat. CRL-3276), 1.25 mM N-Acetyl-L-cysteine (Sigma-Aldrich, cat. A9165), 10 mM nicotinamide (Sigma-Aldrich, cat. N0636), 1X B-27 supplement (Thermo Fisher Scientific, cat. 17504044), 1X N-2 supplement (Thermo Fisher Scientific, cat. 17502048), 10 microM Y-27632 dihydrochloride (Tocris Bioscience, cat. 1254), and 50 ng/mL human EGF recombinant protein (Thermo Fisher Scientific, cat. PHG0311). The 485176-168-R4-J1-PDC line was cultured in Panc media, which includes all 6C/Colon 1B media components plus 100 ng/mL human FGF-10 (Thermo Fisher Scientific, cat. 100-26), 500 nM SB-431542 (Selleckchem, cat. S1067), and gastrin (Tocris, cat. 3006).
[…]

[1] = second compound 0.0316 µM, first compound 0.0316 µM
[2] = second compound 0.0316 µM, first compound 0.1 µM
[3] = second compound 0.0316 µM, first compound 0.316 µM
[4] = second compound 0.0316 µM, first compound 1 µM
[5] = second compound 0.0316 µM, first compound 3.16 µM
[6] = second compound 0.0316 µM, first compound 10 µM
[7] = second compound 0.1 µM, first compound 0.0316 µM
[8] = second compound 0.1 µM, first compound 0.1 µM
[9] = second compound 0.1 µM, first compound 0.316 µM
[10] = second compound 0.1 µM, first compound 1 µM
[11] = second compound 0.1 µM, first compound 3.16 µM
[12] = second compound 0.1 µM, first compound 10 µM
[13] = second compound 0.316 µM, first compound 0.0316 µM
[14] = second compound 0.316 µM, first compound 0.1 µM
[15] = second compound 0.316 µM, first compound 0.316 µM
[16] = second compound 0.316 µM, first compound 1 µM
[17] = second compound 0.316 µM, first compound 3.16 µM
[18] = second compound 0.316 µM, first compound 10 µM
[19] = second compound 1 µM, first compound 0.0316 µM
[20] = second compound 1 µM, first compound 0.1 µM
[21] = second compound 1 µM, first compound 0.316 µM
[22] = second compound 1 µM, first compound 1 µM
[23] = second compound 1 µM, first compound 3.16 µM
[24] = second compound 1 µM, first compound 10 µM
[25] = second compound 3.16 µM, first compound 0.0316 µM
[26] = second compound 3.16 µM, first compound 0.1 µM
[27] = second compound 3.16 µM, first compound 0.316 µM
[28] = second compound 3.16 µM, first compound 1 µM
[29] = second compound 3.16 µM, first compound 3.16 µM
[30] = second compound 3.16 µM, first compound 10 µM
[31] = second compound 10 µM, first compound 0.0316 µM
[32] = second compound 10 µM, first compound 0.1 µM
[33] = second compound 10 µM, first compound 0.316 µM
[34] = second compound 10 µM, first compound 1 µM
[35] = second compound 10 µM, first compound 3.16 µM
[36] = second compound 10 µM, first compound 10 µM
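Further: spheroids exposed to compounds for seven days.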
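Wherever viability, T/C is given: 100% = DMSO vehicle control viability.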

Compound: CC(C)(O)C1CCC(Nc2ccc3ncc(-c4cccc(C(F)(F)F)c4)n3n2)CC1 (centres undefined) + Cc1[nH]c2ccc(F)cc2c1-c1nc2c3cccnc3c3ncccc3c2[nH]1
- IC50 (second compound 0.0316 µM): > 10000 nM
- IC50 (second compound 0.1 µM): > 10000 nM
- IC50 (second compound 0.316 µM): > 10000 nM
- IC50 (second compound 1 µM): > 10000 nM
- IC50 (second compound 3.16 µM): > 10000 nM
- IC50 (second compound 10 µM): > 10000 nM
- viability, T/C [1]: 96.5%
- viability, T/C [2]: 93.5%
- viability, T/C [3]: 76.6%
- viability, T/C [4]: 84.5%
- viability, T/C [5]: 72.9%
- viability, T/C [6]: 66.5%
- viability, T/C [7]: 95.6%
- viability, T/C [8]: 77%
- viability, T/C [9]: 99.1%
- viability, T/C [10]: 77.3%
- viability, T/C [11]: 85%
- viability, T/C [12]: 77.2%
- viability, T/C [13]: 99.7%
- viability, T/C [14]: 87.4%
- viability, T/C [15]: 91.2%
- viability, T/C [16]: 108%
- viability, T/C [17]: 81.6%
- viability, T/C [18]: 62.6%
- viability, T/C [19]: 86.5%
- viability, T/C [20]: 104%
- viability, T/C [21]: 92.6%
- viability, T/C [22]: 87.5%
- viability, T/C [23]: 77.7%
- viability, T/C [24]: 66.4%
- viability, T/C [25]: 95.2%
- viability, T/C [26]: 80.2%
- viability, T/C [27]: 111%
- viability, T/C [28]: 79.8%
- viability, T/C [29]: 94.7%
- viability, T/C [30]: 67%
- viability, T/C [31]: 105%
- viability, T/C [32]: 105%
- viability, T/C [33]: 84.6%
- viability, T/C [34]: 99.8%
- viability, T/C [35]: 72.8%
- viability, T/C [36]: 61.6%

Compound: CC1COCCN1c1cc(-c2ccnn2C)c2ccnc(-c3ccn[nH]3)c2n1 (centres undefined) + Cc1[nH]c2ccc(F)cc2c1-c1nc2c3cccnc3c3ncccc3c2[nH]1
- IC50 (second compound 0.0316 µM): 188 nM
- IC50 (second compound 0.1 µM): 234 nM
- IC50 (second compound 0.316 µM): 280 nM
- IC50 (second compound 1 µM): 243 nM
- IC50 (second compound 3.16 µM): 188 nM
- IC50 (second compound 10 µM): 216 nM
- viability, T/C [1]: 84%
- viability, T/C [2]: 59.3%
- viability, T/C [3]: 44.3%
- viability, T/C [4]: 23.6%
- viability, T/C [5]: 21%
- viability, T/C [6]: 16.5%
- viability, T/C [7]: 82%
- viability, T/C [8]: 66%
- viability, T/C [9]: 45.9%
- viability, T/C [10]: 25.4%
- viability, T/C [11]: 20.9%
- viability, T/C [12]: 21.8%
- viability, T/C [13]: 108%
- viability, T/C [14]: 76.3%
- viability, T/C [15]: 50.5%
- viability, T/C [16]: 22.7%
- viability, T/C [17]: 17.5%
- viability, T/C [18]: 16.5%
- viability, T/C [19]: 93.2%
- viability, T/C [20]: 67%
- viability, T/C [21]: 49%
- viability, T/C [22]: 21.5%
- viability, T/C [23]: 20.1%
- viability, T/C [24]: 15.1%
- viability, T/C [25]: 98.2%
- viability, T/C [26]: 65.6%
- viability, T/C [27]: 37.6%
- viability, T/C [28]: 25%
- viability, T/C [29]: 27.2%
- viability, T/C [30]: 21.4%
- viability, T/C [31]: 104%
- viability, T/C [32]: 70.7%
- viability, T/C [33]: 39.4%
- viability, T/C [34]: 24.8%
- viability, T/C [35]: 26.2%
- viability, T/C [36]: 16.6%

Reference: PubChem BioAssay AID2060489 (Molecular Pharmacology Branch, DTP, NCI, 2025)
